The structures appear in SMILES notation.

One data set has as its system cells. As to conditions: cited from earlier work.
Data set [1] relates to human endothelial cells. Kind of data set: Effect of hypochlorite on human endothelial cells (Vissers et al.). The format is cell-based. The text has this: Hypochlorite and hydrogen peroxide are strong oxidants and are extensively used as antiseptic agents. Hydrogen peroxide is routinely used as an antiseptic agent in cases of external wounds. Hypochlorite is used as an antiseptic agent during, for example, dental root treatment. Both hypochlorous acid and hydrogen peroxide are well-known disinfectants. Hypochlorite is widely used for treatment of drinking water and as a bactericide. Both hypochlorite and hydrogen peroxide have cytotoxic activity at concentrations of several ppm. Vissers et al. tested the effect of hypochlorite on cells. They noticed a necrosis threshold of 20-40 nmole HClO per 1.2×10^5 cells, which translates approximately into 2 ppm concentration. Transient growth (proliferation) inhibition occurred at lower concentrations of 5 nmole, or about 0.2-0.3 ppm. See, “Hypochlorous acid causes caspase activation and apoptosis or growth arrest in human endothelial cells”, by Margret C. M. Vissers, Juliet M. Pullar and Mark B. Hampton, Biochem. J. (1999) vol. 344, pp. 443-449. Schraufenstatter et al. discuss the effect of hypochlorite on P388D1 murine macrophage-like tumor cells in mice. They show cell damage at 0.5-1 ppm hypochlorite and cell death from about 4 ppm hypochlorite and up. […]

Data set [2] deals with human endothelial cells. The following applies: cited from earlier work.
A further data set deals with viruses and bacteria. As to conditions: cited from earlier work.
In data set [3] the test system is P388D1 murine macrophage-like tumor cells. The following applies: cited from earlier work.
A short description of the next data set: Dissociation of HClO. The format is physicochemical. The following applies: −log Ka. The text has this:
The dissociation constant of HClO or, in other words, the equilibrium constant of the reaction HClO→H^++ClO^−[6] is 3.7×10^−8.
Thus, the pKa of the reaction (i.e., −logka) equals 7.4. It is well known that when the pH of a solution equals the pKa of an acid dissolved therein, at all times, half of the acid molecules are dissociated. Since the blood pH value equals 7.4 half of the HClO is dissociated to H^+ and ClO^−.

For `OO` [hydrogen peroxide], the “concentration with cytotoxic activity” value in the data set on cells is reported as “several”.

For `OCl` [hypochlorite, hypochlorous acid], in the data set on human endothelial cells [1] (equivalent of 5 nmole), the “transient growth (proliferation) inhibition as concentration” value is reported as 0.2-0.3 ppm. Besides, in the data set on human endothelial cells [1] (translated from nmole per 1.2×10^5 cells), the “necrosis threshold as concentration” value is given as about 2 ppm. In the data set with human endothelial cells [2], the necrosis threshold is 20-40 nmole HClO per 1.2×10^5 cells. Moreover, in the data set with human endothelial cells [2] (lower concentrations than necrosis), the “transient growth (proliferation) inhibition” value is 5 nmol. Moreover, in the data set on viruses and bacteria, the “level required to kill all viruses and bacteria” value is 40 ppm. For the same compound, the “concentration with cytotoxic activity” value in the data set on cells is “several”. Further, in data set [3], the “concentration causing cell damage” value is given as 0.5-1 ppm and the “concentration causing cell death” value is recorded as at least 4 ppm. In addition, the pKa (in general, the pH at which an ionisable group is half protonated) in the data set “Dissociation of HClO” stood at 7.4.

Values taken from patent US20020188323A1, “Methods, systems and devices for in vivo electrochemical production of therapeutic agents” (Remon Medical Technologies Ltd., priority 2001, published 2002).
